{"source": "patent EP1283052A1", "about": "“Pharmaceutical composition containing caspase-8 and /or caspase-9 useful for overcoming glucocorticoid- and cancer therapy-induced apoptosis of tumours” (Deutsches Krebsforschungszentrum Stiftung des öffentlichen …, priority 2001, dated 2003)", "tested_on": "caspase-9 and -6", "assay": "Fluorometric caspase-6/9 activity assay in CEM cells", "assay_type": "cell-based, human", "settings": "cisplatin 2 µg/ml alone, Fig. 5a", "description": "• (a) P693 and CEM cells were treated with cisplatin (2 µg/ml) in the absence or presence of DEX (1 µM) as indicated. 24 and 48 h following treatment cells were lysed and caspase-9 activity was determined using a fluorescent caspase-9 assay and spectroscopy. • (b) P5 and CEM cells were treated as described above. 24 h after stimulation Apaf-1 was immunoprecipitated from the cell extracts using a […]. Aliquotes of the precipitates were separated by three different gels and analysed by Western blotting using rabbit polyclonal Apaf-1, mAb cytochrome c or caspase-9 antibodies. The antibody heavy chain band (IgGH) ensures equal conditions. […]\n• (A) Cell culture. […] The mice were given 0.28 mg/L DEX in drinking water, and the amount of water consumed was monitored. […] The tumour volumes were measured using callipers, and calculated using, as an approximation, the formula for volume of a hemi-ellipsoid: π(width^2 x length)/6. […] Early apoptotic changes were identified by staining of cells with fluoresceinthiocyanate (FITC)-conjugated annexin V and propidium iodide (Becton Dickinson, Heidelberg, Germany) and analysed by flow cytometry (FACScan, Becton Dickinson) as described (Herr et al., EMBO J. 16 (1997), 6200-6208) • (E) Immunohistochemistry. […] Bound antibodies were detected by FITC conjugated anti-mouse or anti-rabbit IgG (Molecular Probes Europe, Leiden, The Netherlands). […]", "data": [{"compound": "N.N.[Cl][Pt][Cl]", "note": "[cisplatin]", "values": [{"measurement": "caspase-6/9 activity", "value": "induced 24 h following cisplatin in P693 and CEM cells with increasing activity at 48 h"}]}]}
